Read-outs that look alike come from different tables or passages of the source.
What was measured:
[1] = molecular target: T1, FGFR1 (Homo sapiens, UniProt P11362); test: FGFR1 kinase activity inhibition assay (LanthaScreen TR-FRET); format: biochemical
T1 construct: cytoplasmic domain [398-822 (terminal) amino acids]; purchased Carna 08-133
Protocol: (§1) PV3552) and 10 mM EDTA were added to quench the kinase reaction, and incubated at 22°C for 60 minutes. • ⑤ The reaction was measured using a PerkinElmer EnVision multimode plate reader through TR-FRET dual wavelength detection. • 1. The RFU values were copied from the Envision program. • 2. The ratio of RFU 520nm/RFU 495nm was calculated. • 3. The value of the ratio was converted to a percentage inhibition value. % Inhibition = (max-data)/(max-min) × 100 [formula] "Min" represents the ratio of the control without enzyme, "max" represents the ratio of the DMSO control, and "data" represents the ratio of the compounds in wells with different concentrations. […] "Top" refers to the maximum response, "Bottom" refers to the minimum response, and "HillSlope" refers to the slope of the curve.

[2] = molecular target: T2, FGFR3 (Homo sapiens, UniProt P22607); test: FGFR3 kinase activity inhibition assay (LanthaScreen TR-FRET); format: biochemical; conditions: for Selectivity (X) FGFR1/FGFR3: ratio of IC50 FGFR1/FGFR3, selectivity towards FGFR3
T2 construct: FGFR3's cytoplasmic domain [436-806 (terminal) amino acids]; purchased Carna 08-135
Protocol: as §1, with “curve. According to the same method as that in the FGFR1 kinase activity inhibition assay, the inhibitory activities against FGFR2, FGFR3 and FGFR4 were tested using FGFR2's cytoplasmic domain [399-821 (terminal) amino acids] (Carna: 08-134), FGFR3's cytoplasmic domain [436-806 (terminal) amino acids] (Carna: 08-135) and FGFR4's cytoplasmic domain [460-802 (terminal) amino acids] (Carna: 08-136), respectively. […]” for “curve.”

[3] = FGFR1 kinase, TR-FRET, read-out: IC50 (nM) FGFR1
[4] = FGFR3 kinase, TR-FRET, read-out: IC50 (nM) FGFR3

T2 sequence (P22607 436-806): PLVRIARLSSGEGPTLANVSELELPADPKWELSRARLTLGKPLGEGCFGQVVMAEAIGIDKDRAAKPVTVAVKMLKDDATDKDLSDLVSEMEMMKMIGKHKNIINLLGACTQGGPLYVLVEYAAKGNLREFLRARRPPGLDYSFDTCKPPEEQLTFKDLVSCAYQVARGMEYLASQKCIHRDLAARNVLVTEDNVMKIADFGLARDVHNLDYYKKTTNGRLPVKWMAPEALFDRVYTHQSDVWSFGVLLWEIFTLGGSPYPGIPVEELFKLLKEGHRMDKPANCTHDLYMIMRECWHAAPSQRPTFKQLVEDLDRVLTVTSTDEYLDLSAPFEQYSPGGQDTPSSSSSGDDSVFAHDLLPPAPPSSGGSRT
T1 sequence (P11362 398-822): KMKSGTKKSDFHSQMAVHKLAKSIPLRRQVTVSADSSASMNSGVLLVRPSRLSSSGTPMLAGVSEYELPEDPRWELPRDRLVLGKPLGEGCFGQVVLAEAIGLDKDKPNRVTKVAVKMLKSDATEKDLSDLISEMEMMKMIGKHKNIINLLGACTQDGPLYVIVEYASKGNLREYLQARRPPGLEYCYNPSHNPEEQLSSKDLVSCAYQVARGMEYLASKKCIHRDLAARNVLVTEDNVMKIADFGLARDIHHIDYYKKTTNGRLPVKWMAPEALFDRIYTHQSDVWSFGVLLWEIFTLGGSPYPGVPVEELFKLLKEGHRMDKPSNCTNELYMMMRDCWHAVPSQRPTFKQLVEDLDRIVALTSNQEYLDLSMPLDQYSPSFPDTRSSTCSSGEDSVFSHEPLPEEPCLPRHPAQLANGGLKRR

Compound	IC50 [1] [nM]	IC50 [2] [nM]	Selectivity (X) FGFR1/FGFR3 [2]	IC50 [1, 3] [nM]	IC50 [2, 4] [nM]
Cc1ccc2ncccc2c1C(C)Oc1ncc2[nH]nc(-c3cnn(C)c3)c2n1 (stereo not drawn) [Example 110, 6-methyl-5-(1-((3-(1-methyl-1H-pyrazol-4-yl)-1H-pyrazino [4,3-d]pyrimidin-5-yl)oxy)ethyl)quinoline]	10 to 100	1 to 10	A (A represents 1 ≤ multiple X<20)		
Cc1cnc2cccc(C(C)Oc3ccc4[nH]nc(-c5cnn(C)c5)c4c3)c2c1 (stereo not drawn) [Example 128, 3-methyl-5-(1-((3-(1-methyl-1H-pyrazol-4-yl)-1H-indazol-5-yl)oxy)ethyl)qu inoline]			B (B represents 20 ≤ multiple X<50)	> 100	1 to 10
CC(Oc1ccc2[nH]nc(-c3cnn(CCCS(N)(=O)=O)c3)c2c1)c1cccc2nccnc12 (stereo not drawn) [Example 179, 3-(4-(5-(1-(quinoxalin-5-yl)ethoxy)-1H-indazol-3-yl)-1H-pyrazol-1-yl)propane-1-sulfonamide]			B (B represents 20 ≤ multiple X<50)	10 to 100	< 1
CNC(C)(C)C(=O)N1CC(n2cc(-c3n[nH]c4ccc(OC(C)c5cccc6nccnc56)cc34)cn2)C1 (stereo not drawn) [Example 216, 2-methyl-2-(methylamino)-1-(3-(4-(5-(1-(quinoxalin-5-yl)ethoxy)-1H-indazol-3-yl)-1H-pyrazol-1-yl)azetidin-1-yl)propan-1-one]			A (A represents 1 ≤ multiple X<20)	1 to 10	< 1
CC(Oc1ccc2[nH]nc(-c3cnn(C)c3)c2c1)c1cc(C(F)F)cc2nccnc12 (stereo not drawn) [Example 145, 7-(difluoromethyl)-5-(1-((3-(1-methyl-1H-pyrazol-4-yl)-1H-indazol-5-yl)oxy)ethyl)qu inoxaline]			A (A represents 1 ≤ multiple X<20)	1 to 10	< 1
CC(Oc1ccc2[nH]nc(-c3cnn(C4CN(C(=N)N)C4)c3)c2c1)c1cccc2nccnc12 (stereo not drawn) [Example 177, 3-(4-(5-(1-(quinoxalin-5-yl)ethoxy)-1H-indazol-3-yl)-1H-pyrazol-1-yl)azetidine-1-carboximidamide]			B (B represents 20 ≤ multiple X<50)	10 to 100	1 to 10
Cc1ncc(-c2n[nH]c3ccc(O[C@H](C)c4c(Cl)cncc4Cl)nc23)cn1 [Example 52, (R)-5-(1-(3,5-dichloropyridin-4-yl)ethoxy)-3-(2-methylpyrimidin-5-yl)-1H-pyrazolo[4,3-b]pyridine]			A (A represents 1 ≤ multiple X<20)	> 100	10 to 100
C[C@@H](Oc1cc(F)c2[nH]nc(-c3cnn(CC(=O)N4CCOCC4)c3)c2c1)c1c(Cl)cncc1Cl [Example 19, (R)-2-(4-(5-(1-(3,5-dichloropyridin-4-yl)ethoxy)-7-fluoro-1H-indazol-3-yl)-1H-pyrazol-1-yl)-1-morpholinoetha n-1-one]			A (A represents 1 ≤ multiple X<20)	10 to 100	10 to 100
Cc1ccc2nnccc2c1C(C)Oc1ccc2[nH]nc(-c3cnn(C)c3)c2c1 (stereo not drawn) [Example 168, 6-methyl-5-(1-((3-(1-methyl-1H-pyrazol-4-yl)-1H-indazol-5-yl)oxy)ethyl)cinnoline]			A (A represents 1 ≤ multiple X<20)	10 to 100	1 to 10
Cc1cc(C(C)Oc2ccc3[nH]nc(-c4cnn(C5CN(C(=O)CO)C5)c4)c3c2)c2cccnc2c1 (stereo not drawn) [Example 192, 2-hydroxy-1-(3-(4-(5-(1-(7-methylquinolin-5-yl)ethoxy)-1H-indazol-3-yl)-1-pyrazol-1-yl)azetidin-1-yl)ethan-1-one]			B (B represents 20 ≤ multiple X<50)	10 to 100	< 1
CC(Oc1ccc2[nH]nc(-c3cnn(C)c3)c2c1)c1cc(Br)cc2nccnc12 (stereo not drawn) [Example 143, 7-bromo-5-(1-((3-(1-methyl-1H-pyrazol-4-yl)-1H-indazol-5-yl)oxy)ethyl)quinoxaline]			B (B represents 20 ≤ multiple X<50)	10 to 100	1 to 10
CC(Oc1ccc2[nH]nc(-c3cnn(C4CN(C(=O)N(C)C)C4)c3)c2c1)c1cccc2nccnc12 (stereo not drawn) [Example 178, N,N-dimethyl-3-(4-(5-(1-(quinoxalin-5-yl)ethoxy)-1H-indazol-3-yl)-1H-pyrazol-1-yl)azetidine-1-carboxamide]			B (B represents 20 ≤ multiple X<50)	1 to 10	< 1
CC(C)c1cc(C(C)Oc2ccc3[nH]nc(-c4cnn(C)c4)c3c2)c2nccnc2c1 (stereo not drawn) [Example 144, 7-isopropyl-5-(1-((3-(1-methyl-1H-pyrazol-4-y1)-1H-indazol-5-yl)oxy)ethyl)quino xaline]	> 100	< 1	C (C represents 50 ≤ multiple X<100)		
CCCn1cc(-c2n[nH]c3c(F)cc(O[C@H](C)c4c(Cl)cncc4Cl)cc23)cn1 [Example 10]	10 to 100	1 to 10	A (A represents 1 ≤ multiple X<20)		
CC(Oc1ccc2[nH]nc(-c3cnn(C4CC(N(C)S(C)(=O)=O)C4)c3)c2c1)c1cccc2nccnc12 (stereo not drawn) [Example 198, N-methyl-N-(3-(4-(5-(1-(quinoxalin-5-yl)ethoxy)-1H-indazol-3-yl)-1H-pyrazol-1-yl)cyclobutyl)methanesulfonamide]			B (B represents 20 ≤ multiple X<50)	10 to 100	< 1
CC(Oc1ccc2[nH]nc(-c3cnn(C)c3)c2c1)c1cc(N)cc2ncccc12 (stereo not drawn) [Example 150, 5-(1-((3-(1-methyl-1H-pyrazol-4-yl)-1H-indazol-5-yl)oxy)ethyl)qu inoline-7-amine]			A (A represents 1 ≤ multiple X<20)	1 to 10	< 1
Cc1ccc2nccnc2c1C(C)Oc1ccc2[nH]nc(-c3cnn(C)c3)c2c1 (stereo not drawn) [Example 112]			A (A represents 1 ≤ multiple X<20)	10 to 100	< 1
COCCn1cc(-c2n[nH]c3ccc(O[C@H](C)c4c(Cl)cncc4Cl)nc23)cn1 [Example 40, (R)-5-(1-(3,5-dichloropyridin-4-yl)ethoxy)-3-(1-(2-methoxyethyl)-1H-pyrazol-4-yl)-1H-pyrazolo[4,3-b]pyridine]	10 to 100	1 to 10	A (A represents 1 ≤ multiple X<20)		
CNCCNC(=O)c1ccc2[nH]nc(-c3nc(-c4ccccc4)c[nH]3)c2c1 [Example 82, N-(2-(methylamino)ethyl)-3-(4-phenyl-1H-imidazol-2-yl)-1H-indazole-5-carboxamide]					> 100
CC(Oc1ccc2[nH]nc(-c3ccc(S(C)(=N)=O)nc3)c2c1)c1cccc2nccnc12 (stereo not drawn) [Example 152, imino(methyl)(5-(5-(1-(quinoxalin-5-yl)ethoxy)-1H-indazol-3-yl)pyridin-2-yl)-sulfanone]					1 to 10
Cn1cc(-c2n[nH]c3ccc(C(=O)NCC(C)(C)O)cc23)cn1 [Example 67, N-(2-hydroxy-2-methylpropyl)-3-(1-methyl-1H-pyrazol-4-yl)-1H-indazole-5-carboxamide]					> 100
